In patent US10111437B2, “Substituted guanidines as fungicides” (Nippon Soda Co., Ltd., priority 2015, dated 2018):

Assays:
[1] = tested on: Tomato late blight fungus (Phytophthora infestans); test: whole plant or invertebrate; type: in vivo; conditions: foliar, 96 h, read-out: control value
[2] = tested on: Apple scab fungus (Venturia inaequalis); test: Apple scab control test (foliar spray on apple seedlings); type: in vivo; conditions: 125 ppm active ingredient, sprayed on apple seedlings (variety Orin) before inoculation, vs untreated
Description: The dilution was sprayed to apple seedlings (variety “Orin”, 3 to 4 leaf stage) grown in clay pots. […] The control value was calculated by the following equation. [formula]

[3] = tested on: wheat leaf rust fungus (Puccinia recondita); test: Wheat leaf rust control test (foliar spray on wheat seedlings); type: in vivo; conditions: 240 h, 125 ppm active ingredient, sprayed on wheat seedlings (variety Norin 61) before inoculation, 10 days, vs untreated
[4] = tested on: cucumber gray mold fungus (Botrytis cinerea); test: Cucumber gray mold control test (foliar spray on cucumber seedlings); conditions: in Cucumis sativus, 96 h, read-out: control value

Measured: pest or weed control at 125 ppm

N=C(N)NCCCCCCCCNC(=N)NCCCCOc1ccc(C2=NCCN2)cc1 [compound 246]
≥ 75%: all assays above

N=C(N)NCCCCCCCCNC(=N)NCCCOc1ccc(C(=N)N)cn1 [compound 120]
≥ 75%: all assays above

N=C(N)NCCCCCCCCNC(=N)NCCC=Cc1ccc(C(=N)N)cc1 [compound 157]
≥ 75%: all assays above

N=C(N)NCCCCCCCNC(=N)NCCCOc1ccc(C(=N)N)cc1 [compound 29, 4-[3-[[N-(7-guanidinoheptyl)carbamimidoyl]amino]propoxy]benzamidine]
≥ 75%: all assays above

N=C(N)NCCCCCCCCNC(=N)NCCCc1ccc(C(=N)N)cc1 [compound 169]
≥ 75%: all assays above

N=C(N)NCCCCCCCCNC(=N)NCCCc1ccc(C2=NCCCN2)cn1 [compound 273]
≥ 75%: all assays above

N=C(N)c1ccc(OCCCn2ccn(CCCOc3ccc(C(=N)N)cc3)c2=N)cc1 [compound 89]
≥ 75%: [1] | [2] | [3]

N=C(NCCCOc1ccc(C(=N)N)cc1)NCCCOc1ccc(C(=N)N)cc1 [compound 42, 4-[3-[[N-[3-(4-carbamimidoylphenoxy)propyl]carbamimidoyl]amino]propoxy]benzamidine]
≥ 75%: all assays above

N=C(NCCCOCc1ccc(C(=N)N)cc1)NCCCOc1ccc(C(=N)N)cc1 [compound 142]
≥ 75%: all assays above

N=C(NCC/C=C/c1ccc(C(=N)N)cc1)NCC/C=C/c1ccc(C(=N)N)cc1 [compound 151]
≥ 75%: all assays above

CN(CCCOc1ccc(C(=N)N)cc1)C(=N)NCCCCCCCCNC(=N)N [compound 128]
≥ 75%: all assays above

CNC(=N)c1ccc(OCCCn2ccn(CCCOc3ccc(C(=N)N)cc3)c2=N)cc1 [compound 122]
≥ 75%: all assays above

N=C(N)NCCCCCCCCNC(=N)NCCCCOc1ccc(C2=NCCCCN2)cc1 [compound 254]
≥ 75%: all assays above

N=C(NCCCC#Cc1ccc(C(=N)N)cc1)NCCCC#Cc1ccc(C(=N)N)cc1 [compound 22, 4-[5-[[N-[5-(4-carbamimidoylphenyl)pent-4-ynyl]carbamimidoyl]amino]pent-1-ynyl]benzamidine]
≥ 75%: all assays above

N=C(N)NCCCCCCCNC(=N)NCCCSc1ccc(C(=N)N)cc1 [compound 177]
≥ 75%: all assays above

N=C(N)NCCCCCCCCNC(=N)N1CCC(Oc2ccc(C3=NCCCN3)cc2)CC1 [compound 264]
≥ 75%: all assays above

N=C(N)NCCCCCCCCn1ccn(CCOc2ccc(C3=NCC(N)CN3)cc2)c1=N (stereo not shown) [compound 302]
≥ 75%: all assays above

N=C(N)NCCCCCCCN1CCN(CCCCCCCNC(=N)N)C1=N [compound 8, 1-[7-[3-(7-guanidinoheptyl)-2-imino-imidazolidin-1-yl]heptyl]guanidine]
≥ 75%: all assays above

N=C(N)NCCCCCCCCNC(=N)NCCOc1ccc(C2=NCCCN2)nc1 [compound 288]
≥ 75%: all assays above

N=C(N)NCCCCCCNC(=N)NCCCCOc1ccc(C(=N)N)cc1 [compound 136]
≥ 75%: all assays above

N=C(N)NCCCCCCCNC(=N)NCCCCOc1ccc(C(=N)N)cn1 [compound 32, 6-(4-(3-(7-guanidinoheptyl)guanidino)butoxy)nicotinimidamide]
≥ 75%: all assays above

N=C(N)NCCCCCCCNC(=N)NCCCCOc1ccc(C2=NCC(N)CN2)cc1 (stereo not shown) [compound 277]
≥ 75%: all assays above

N=C(NCCCCOc1ccc(C(=N)N)cc1)NCCCCOc1ccc(C(=N)N)cc1 [compound 10, 4-[4-[[N-[4-(4-carbamimidoylphenoxy)butyl]carbamimidoyl]amino]butoxy]benzamidine]
≥ 75%: all assays above

N=C(N)NCCCCCCCCNC(=N)NCCCOCc1ccc(C(=N)N)cc1 [compound 145]
≥ 75%: all assays above

N=C(N)c1ccc(OCCCCn2ccn(CCCOc3ccc(C(=N)N)cc3)c2=N)cc1 [compound 40, 4-[4-[3-[3-(4-carbamimidoylphenoxy)propyl]-2-imino-imidazol-1-yl]butoxy]benzamidine]
≥ 75%: all assays above

N=C(N)NCCCCCCCCNC(=N)NCCCOc1ccc(C(=N)N)cc1Cl [compound 112]
≥ 75%: all assays above

CNC(=N)c1ccc(OCCCCn2ccn(CCCOc3ccc(C(=N)N)cc3)c2=N)cc1 [compound 124]
≥ 75%: all assays above

Cc1c(C)n(CCCOc2ccc(C(=N)N)cc2)c(=N)n1CCCOc1ccc(C(=N)N)cc1 [compound 109]
≥ 75%: all assays above

N=C(N)NCCCCCCCNC(=N)NCCCCCOc1ccc(C(=N)N)cc1 [compound 186]
≥ 75%: all assays above

N=C(NCCCCCCCCNC1=NCCN1)NCCCOc1ccc(C(=N)N)cc1 [compound 298]
≥ 75%: all assays above

CN1CCCN=C1c1ccc(OCCNC(=N)NCCCCCCCCNC(=N)N)cc1 [compound 300]
≥ 75%: all assays above

N=C(N)NCCCCCCCNC(=N)NCCCc1cc2cc(C(=N)N)ccc2o1 [compound 34, 2-(3-(3-(7-guanidinoheptyl)guanidino)propyl)benzofuran-5-carboximidamide]
≥ 75%: all assays above

N=C(N)c1ccc(OCCCCN2CCN(CCCCOc3ccc(C(=N)N)cc3)C2=N)cc1 [compound 6, 4-[4-[3-[4-(4-carbamimidoylphenoxy)butyl]-2-imino-imidazolidin-1-yl]butoxy]benzamidine]
≥ 75%: all assays above

N=C(N)NCCCCCCCn1ccn(CCCOc2ccc(C3=NCCCN3)cc2)c1=N [compound 206]
≥ 75%: all assays above

N=C(N)c1ccc(OCCCn2ccn(CCCOc3ccc(C(=N)N)c(F)c3)c2=N)cc1F [compound 103]
≥ 75%: all assays above

N=C(N)NCCCCCCCCNC(=N)NCCOc1ccc2cc(C3=NCCCN3)ccc2c1 [compound 292]
≥ 75%: [1] | [2] | [3]

N=C(N)NCCCCCCCCn1ccn(CCOc2ccc(C3=NCCCN3)cc2)c1=N [compound 270]
≥ 75%: [1] | [2] | [3]
